Results on eight compounds are retold here after BindingDB's records for doi:10.1021/jm049073+ (University of Innsbruck, 2005).

pKi: −log10 of the molar value.

For the assay, the target named is Sigma non-opioid intracellular receptor 1 (Cavia porcellus). The experiment in a line: Affinity for sigma receptor type 1 of guinea pig using [3H]ifenprodil or (+)-[3H]pentazocine radioligand.
With `NC(=Nc1nc(-c2cc3ccccc3[nH]2)cs1)NCc1ccccc1` [N-Benzyl-N'-[4-(1H-indol-2-yl)-thiazol-2-yl]-guanidine], the negative-log Ki (pKi) was 4.57.
Next, `CN(c1nc2ccccc2s1)C1CCN(CCCCOc2ccccc2)C1` (stereo not drawn) [Benzothiazol-2-yl-methyl-[1-(4-phenoxy-butyl)-pyrrolidin-3-yl]-amine]: 8.89.
To `O=C(O)c1ccc(CCN2CCN(C/C=C/c3ccc(Cl)cc3)CC2)cc1` belongs 6.17.
Next, `CC1=C2C[C@H]3[C@@H](CC=C4C[C@@H](O)CC[C@@]43C)[C@@H]2CC[C@]12O[C@]1(C)C[C@H](C)CN[C@H]1[C@H]2C` [2',3,6,7a,15'-Pentamethyl-(1'S,2'R,2'R,3R,3aS,5'S,6S,7aR,10'S,11'S)-spiro[perhydrofuro[3,2-b]pyridine-2,14'-tetracyclo[8.7.0.02,7.011,16]heptadeca-7',15'-diene]-5'-ol]: less than 4.00.
Compound `CC[C@H]1CC2C[C@H]3C4Nc5ccc(OC)cc5C4CCN(C2)C13` (stereo partly drawn) [17-ethyl-3,13-diazapentacyclo[13.3.1.02,10.04,9.013,18]nonadeca-4,6,8-trien-7-yl methyl ether] had a pKi of 5.07.
To `CCCCCCCOc1ccccc1NC(=O)OC(C)CN(CC)CC` (stereo not drawn) [(2-Heptyloxy-phenyl)-carbamic acid 2-diethylamino-1-methyl-ethyl ester] belongs 6.64; to `C[C@H]1CCC2[C@@H](C)[C@H]3[C@H](C[C@H]4[C@@H]5CC=C6C[C@@H](O)CC[C@]6(C)[C@H]5CC[C@]34C)N2C1` (stereo partly drawn) [4a,6a,7,10-tetramethyl-(2S,4aR,4bS,6aS,6bR,7S,10S,12aS,13aS,13bR)-2,3,4,4a,4b,5,6,6a,6b,7,7a,8,9,10,11,12a,13,13a,13b,14-icosahydro-1H-naphtho[2',1':4,5]indeno[1,2-b]indolizin-2-ol], 7.13; to `CCCCCCCCCCCCC(C#N)(CCCN(C)CCc1ccccc1)c1ccccc1` (stereo not drawn) [2-[3-(Methyl-phenethyl-amino)-propyl]-2-phenyl-tetradecanenitrile], 9.00.
